Assay results as given in BindingDB's records for doi:10.1016/s0960-894x(01)00814-9 (Friedrich-Alexander University, 2002).

Biological target: 5-hydroxytryptamine receptor 1A (Sus scrofa)
Assay: Compound was tested in vitro for its ability to compete with [3H]8-OH-DPAT at 5-hydroxytryptamine 1A receptor in porcine brain homogenate

N#Cc1cccc2c(CN3CCN(c4ccc(Cl)cc4)CC3)cnn12 [3-[4-(4-Chloro-phenyl)-piperazin-1-ylmethyl]-pyrazolo[1,5-a]pyridine-7-carbonitrile]
Ki: 2200 nM
